Results taken from patent US6645983B1, “Pharmaceutical compositions comprising 4-quinolones for treating cancers” (Laboratoire L. Lafon, priority 1999, dated 2003).
Like-named read-outs stand apart in the source and are kept apart here.

Key:
A-427 = experiment: MTT test, cytotoxic activity on non-clonogenic cell lines; type: cell-based; settings: Homo sapiens, 10^−5 M, mean value
Method in brief: (§1)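 Human cancer lines seeded at 20 000–50 000 cells/ml, allowed 24 h to attach, then exposed to compounds at 10^−5 to 10^−10 M versus solvent control.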

A549 = experiment: as above; type: cell-based; settings: Homo sapiens, 10^−5 M, mean value
Method in brief: as §1

HCT-15 [1] = experiment: as above; type: cell-based; settings: Homo sapiens, mean value
Method in brief: as §1

LoVo = experiment: as above; type: cell-based; settings: Homo sapiens, 10^−5 M, mean value
Method in brief: as §1

MCF7 = experiment: as above; type: cell-based; settings: Homo sapiens, 10^−5 M, mean value
Method in brief: as §1

PC-3 = experiment: as above; type: cell-based; settings: Homo sapiens, 10^−5 M, mean value
Method in brief: as §1

T-47D = experiment: as above; type: cell-based; settings: Homo sapiens, T47D, 10^−5 M, mean value
Method in brief: as §1

U-373MG = experiment: as above; type: cell-based; settings: Homo sapiens, U373 MG, 10^−5 M, mean value
Method in brief: as §1

U-87MG = experiment: as above; type: cell-based; settings: Homo sapiens, 10^−5 M, mean value
Method in brief: as §1

SW1088 = experiment: as above; type: cell-based; settings: Homo sapiens, 10^−5 M, mean value
Method in brief: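 Human astrocytoma SW1088 cells seeded, grown 24 h at 37° C, 5% CO2, then exposed to compounds at 10^−5 to 10^−10 M versus solvent control. Viability by MTT reduction: 3 h MTT incubation, formazan dissolved in DMSO and read by spectrophotometry.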

J82 = experiment: as above; type: cell-based; settings: Homo sapiens, 10^−5 M, mean value
Method in brief: (§2)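 Human bladder cancer lines were seeded at 20 000–50 000 cells/ml and, after 24 h, exposed to compounds at 10^−5 to 10^−10 M against a solvent control. Formazan was dissolved in DMSO and viability was read by spectrophotometric optical density.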

T24 = experiment: as above; type: cell-based; settings: Homo sapiens, T-24, 10^−5 M, mean value
Method in brief: as §2

HCT-15 [2] = system: HCT-15
HCT-15 [3] = experiment: cells; settings: Homo sapiens, HCT-15, read-out: concentration that inhibits by 50% (IC50) the in vitro cell growth of the HCT-15 line
[4] = 72 hours of incubation, control condition = 100%, read-out: mean optical density as percentage of control, A-427
[5] = 72 hours of incubation, control condition = 100%, read-out: mean optical density as percentage of control, A549
[6] = 10^−5 M, 72 hours of incubation, control condition = 100%, read-out: mean optical density as percentage of control, HCT-16
[7] = 72 hours of incubation, control condition = 100%, read-out: mean optical density as percentage of control, LoVo
[8] = 72 hours of incubation, control condition = 100%, read-out: mean optical density as percentage of control, MCF7
[9] = 72 hours of incubation, control condition = 100%, read-out: mean optical density as percentage of control, PC-3
[10] = 72 hours of incubation, control condition = 100%, read-out: mean optical density as percentage of control, T-47D
[11] = 72 hours of incubation, control condition = 100%, read-out: mean optical density as percentage of control, U-373MG
[12] = U-87 MG, 72 hours of incubation, control condition = 100%, read-out: mean optical density as percentage of control, U-87MG
[13] = 72 hours of incubation, control condition = 100%, read-out: mean optical density as percentage of control, SW1088
[14] = 72 hours of incubation, control condition = 100%, read-out: mean optical density as percentage of control, J82
[15] = 72 hours of incubation, control condition = 100%, read-out: mean optical density as percentage of control, T24
[16] = 72 hours incubation, MTT, read-out: mean optical density, expressed as percentage relative to the mean optical density under the control condition (100%)

Question: Which viability at 10 µM (A-427; [4]) does the source give for `COc1ccc(-c2cnc3c(OC)ccc(OC)c3c2OCCN(C)C)cc1` [CRL8370, N-{2-[5,8-Dimethoxy-3-(4-methoxyphenyl)-4-quinolyl]oxy}ethyl-N,N-dimethylamine] here?
Answer: 76%

Question: What about the viability at 10 µM (A549; [5]) of the same compound?
Answer: 85.6%

Question: And the viability at 10 µM (HCT-15 [1]; [6])?
Answer: 103%

Question: What about the viability at 10 µM (LoVo; [7]) of the same compound?
Answer: 95.1%

Question: What about the viability at 10 µM (MCF7; [8]) of the same compound?
Answer: 88.5%

Question: And the viability at 10 µM (PC-3; [9])?
Answer: 87.1%

Question: And the viability at 10 µM (T-47D; [10])?
Answer: 88.5%

Question: And the viability at 10 µM (U-373MG; [11])?
Answer: 105%

Question: And the viability at 10 µM (U-87MG; [12])?
Answer: 104%

Question: What about the viability at 10 µM (SW1088; [13]) of the same compound?
Answer: 99.4%

Question: And the viability at 10 µM (J82; [14])?
Answer: 102%

Question: And the viability at 10 µM (T24; [15])?
Answer: 74.3%

Question: What about the melting point of the same compound?
Answer: 69 to 70 °C

Question: What about the “amplification compared with the activity of adriamycin alone (gain / activity alone)” value (HCT-15 [2]; 10^−5 M compound + 10^−7 M adriamycin, 15.2/42.8) of the same compound?
Answer: about 35%

Question: With `COc1ccc(-c2cn(CCCC#N)c3c(OC)ccc(OC)c3c2=O)cc1` [CRL8421, 4-[5,8-Dimethoxy-3-(4-methoxyphenyl)-4-oxo-1,4-dihydro-1-quinolinyl]butanenitrile] as the compound, how does the viability at 10 µM (A-427; [4]) read?
Answer: 33%

Question: And the viability at 10 µM (A549; [5])?
Answer: 97.5%

Question: And the viability at 10 µM (HCT-15 [1]; [6])?
Answer: 50%

Question: And the viability at 10 µM (LoVo; [7])?
Answer: 60.8%

Question: What about the viability at 10 µM (MCF7; [8]) of the same compound?
Answer: 49.5%

Question: What about the viability at 10 µM (PC-3; [9]) of the same compound?
Answer: 61.4%

Question: What about the viability at 10 µM (T-47D; [10]) of the same compound?
Answer: 83.5%

Question: And the viability at 10 µM (U-373MG; [11])?
Answer: 81.7%

Question: And the viability at 10 µM (U-87MG; [12])?
Answer: 29.9%

Question: And the viability at 10 µM (SW1088; [13])?
Answer: 51%

Question: What about the viability at 10 µM (J82; [14]) of the same compound?
Answer: 47.1%

Question: What about the viability at 10 µM (T24; [15]) of the same compound?
Answer: 40.3%

Question: What about the melting point of the same compound?
Answer: 126 to 127 °C

Question: For `COc1ccc(-c2cn(CCN(C)C)c3cc(OC)ccc3c2=O)cc1` [CRL8469, N-[3-(Dimethylamino)ethyl]-7-methoxy-3-(4-methoxyphenyl)-1,4-dihydro-4-quinolinone], which viability at 10 µM (A-427; [16]) is on record?
Answer: 102%

Question: And the viability at 10 µM (A549; [16])?
Answer: 100%

Question: What about the viability at 10 µM (HCT-15 [1]; HCT-16, 10^−5 M, 72 hours incubation, MTT, read-out: mean optical density, expressed as percentage relative to the mean optical density under the control condition (100%)) of the same compound?
Answer: 101%

Question: What about the viability at 10 µM (LoVo; [16]) of the same compound?
Answer: 95.9%

Question: What about the viability at 10 µM (MCF7; [16]) of the same compound?
Answer: 97.6%

Question: What about the viability at 10 µM (PC-3; [16]) of the same compound?
Answer: 99.9%

Question: And the viability at 10 µM (T-47D; T-47D, 72 hours incubation, MTT, read-out: mean optical density, expressed as percentage relative to the mean optical density under the control condition (100%))?
Answer: 103%

Question: And the viability at 10 µM (U-373MG; U-373MG, 72 hours incubation, MTT, read-out: mean optical density, expressed as percentage relative to the mean optical density under the control condition (100%))?
Answer: 102%

Question: What about the viability at 10 µM (U-87MG; U-87MG, 72 hours incubation, MTT, read-out: mean optical density, expressed as percentage relative to the mean optical density under the control condition (100%)) of the same compound?
Answer: 108%

Question: And the viability at 10 µM (SW1088; [16])?
Answer: 105%

Question: What about the viability at 10 µM (J82; [16]) of the same compound?
Answer: 89.5%

Question: And the viability at 10 µM (T24; T24, 72 hours incubation, MTT, read-out: mean optical density, expressed as percentage relative to the mean optical density under the control condition (100%))?
Answer: 98.1%

Question: What about the melting point of the same compound?
Answer: 142 to 143 °C

Question: For `COc1ccc(-c2cn(CCOS(=O)(=O)c3ccc(C)cc3)c3c(OC)ccc(OC)c3c2=O)cc1` [CRL8517, 4-2-[5,8-Dimethoxy-3-(4-methoxyphenyl)-4-oxo-1,4-dihydro-1-quinolyl]ethyl p-Toluenesulfonate], which melting point is on record?
Answer: 85 to 86 °C

Question: With `COc1ccc(-c2cn(CCC#N)c3c(OC)ccc(OC)c3c2=O)cc1` [CRL8518, 3-[5,8-Dimethoxy-3-(4-methoxyphenyl)-4-oxo-1,4-dihydro-1-quinolinyl]propanenitrile] as the compound, how does the melting point read?
Answer: 79 to 80 °C

Question: For `COc1ccc(-c2cnc3c(OC)ccc(OC)c3c2OCCCCC#N)cc1` [CRL8519, {[5,8-Dimethoxy-3-(4-methoxyphenyl)-4-quinolyl]oxy}pentanenitrile], which melting point is on record?
Answer: 126 to 127 °C

Question: For `C=CCNc1cc(OC)cc2c1c(=O)c(-c1ccc(OC)cc1)cn2C` [CRL8520, 5-Allylamino-7-methoxy-3-(4-methoxyphenyl)-1-methyl-1,4-dihydro-4-quinolinone], which melting point is on record?
Answer: 154 to 155 °C

Question: For `COc1ccc(CNc2cc(OC)cc3c2c(=O)c(-c2ccc(OC)cc2)cn3C)cc1` [CRL8521, 5-(4-Methoxybenzylamino)-7-methoxy-3-(4-methoxyphenyl)-1-methyl-1,4-dihydro-4-quinolinone], which melting point is on record?
Answer: 144 to 145 °C

Question: Which melting point does the source give for `COc1ccc(-c2cn(CC#N)c3cc(OC)ccc3c2=O)cc1` [CRL8522, [7-Methoxy-3-(4-methoxyphenyl)-4-oxo-1,4-dihydro-1-quinolinyl]acetonitrile] here?
Answer: 206 to 207 °C

Question: Which melting point does the source give for `CCN(CC)C(=O)CCn1cc(-c2ccc(OC)cc2)c(=O)c2ccc(OC)cc21` [CRL8525, N,N-Diethyl-3-[7-methoxy-3-(4-methoxyphenyl)-4-oxo-1,4-dihydro-1-quinolinyl]propanamide] here?
Answer: 158 to 159 °C

Question: Which inhibition (HCT-15 [2]) does the source give for `COc1cccc2c1C(=O)c1c(O)c3c(c(O)c1C2=O)C[C@@](O)(C(=O)CO)C[C@@H]3O[C@H]1C[C@H](N)[C@H](O)[C@H](C)O1` [adriamycin, reference compound] here?
Answer: 42.8%

Question: What about the IC50 (HCT-15 [3]) of the same compound?
Answer: 100 nM

Question: For `COc1cc([C@@H]2c3cc4c(cc3[C@@H](O[C@@H]3O[C@@H]5CO[C@@H](C)O[C@H]5[C@H](O)[C@H]3O)[C@H]3COC(=O)[C@H]23)OCO4)cc(OC)c1O` [etoposide], which IC50 (HCT-15 [3]) is on record?
Answer: 1000 nM
